Test results from article PMC10808066, “The CRISPR effector Cam1 mediates membrane depolarization for phage defence” (Nature, 2024).
“And” between values parts separate entries of the source, which are not always exact repeats. Equal values may be shown once. Each block holds one compound with its values, some of them ahead of it.

Experiments:
[1] = target: MvCam1-His (Methylomarium vadi); assay: cross-linking; in vivo in S. aureus, 2 mM DSS and BMH, 1 h at room temperature, with or without aTc; Western blot of lysates with anti-His6
[2] = target: MGSS–His6–TEV–NhCam1 (full-length NhCam1) (Nitrosococcus halophilus Nc4); assay: SEC-MALS; full-length Cam1 in DDM micelles, conjugate analysis; 25 mM Tris pH 8, 500 mM NaCl, 2 mM β-mercaptoethanol, 0.02% DDM
[3] = target: NhCam1–His (Nitrosococcus halophilus Nc4); assay: cross-linking; in vivo in S. aureus, 2 mM DSS and BMH, 1 h at room temperature, with or without aTc; Western blot of lysates with anti-His6
[4] = target: gpCam1-His (unknown Gammaproteobacterium); assay: as above
[5] = target: T1, NhCam1 (cyclic oligoadenylate-activated membrane protein 1; WP_013033759) (Nitrosococcus halophilus, UniProt D5BXZ3, M194A/P192A/V79A); assay: ITC; type: binding
T1 construct: gene Nhal_2839; CARF domain, residues 67–206

[6] = target: T2, NhCam1 (cyclic oligoadenylate-activated membrane protein 1; WP_013033759) (Nitrosococcus halophilus, UniProt D5BXZ3); assay: ITC; […] Å X-ray crystal structure; type: binding
T2 construct: gene Nhal_2839; CARF domain, residues 67–206 (ITC; Methods: 66–206); residues 42–206 (crystal); homodimer, one ligand per dimer
T2 sequence (D5BXZ3 67-206): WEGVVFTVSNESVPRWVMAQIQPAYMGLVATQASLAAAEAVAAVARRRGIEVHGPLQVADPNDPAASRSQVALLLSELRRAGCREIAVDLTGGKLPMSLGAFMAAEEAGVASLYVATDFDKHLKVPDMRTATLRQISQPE

[7] = target: T3, NhCam1 (cyclic oligoadenylate-activated membrane protein 1; WP_013033759) (Nitrosococcus halophilus, UniProt D5BXZ3, N76A/S75A); assay: ITC; type: binding
T3 construct: gene Nhal_2839; CARF domain, residues 67–206

[8] = target: T4, NhCam1 (cyclic oligoadenylate-activated membrane protein 1; WP_013033759) (Nitrosococcus halophilus, UniProt D5BXZ3, T97A); assay: ITC; type: binding
T4 construct: gene Nhal_2839; CARF domain, residues 67–206

[9] = target: T5, NhCam1 (cyclic oligoadenylate-activated membrane protein 1; WP_013033759) (Nitrosococcus halophilus, UniProt D5BXZ3, T183A/Y180A); assay: ITC; type: binding
T5 construct: gene Nhal_2839; CARF domain, residues 67–206

Compound: MGSS–His6–TEV–NhCam1 (full-length NhCam1) (natural protein)
stoichiometry N [2]: 4

Compound: Nc1ncnc2c1ncn2[C@@H]1O[C@@H]2COP(=O)(O)O[C@H]3[C@@H](O)[C@H](n4cnc5c(N)ncnc54)O[C@@H]3COP(=O)(O)O[C@H]3[C@@H](O)[C@H](n4cnc5c(N)ncnc54)O[C@@H]3COP(=O)(O)O[C@H]3[C@@H](O)[C@H](n4cnc5c(N)ncnc54)O[C@@H]3COP(=O)(O)O[C@H]2[C@H]1O [cA4]
Kd [5]: 2.1 µM | Kd [6]: 0.012 µM | Kd [7]: 4 µM | Kd [8]: 3.74 µM | Kd [9]: 4.5 µM

Results, then the compound that gave them:

stoichiometry N [1]: 2 and 4
Compound: MvCam1-His (natural protein)

stoichiometry N [3]: 2 and 4
Compound: NhCam1–His (natural protein)

stoichiometry N [4]: 2 and 4
Compound: gpCam1-His (natural protein)
